Assay results: patent EP2003118A1, “Cinnamic acid derivatives as modulators of EP2 receptors” (Bayer Schering Pharma Aktiengesellschaft, priority 2007, dated 2008)

Assays:
[1] = target: T1, EP2-Subtyp des humanen PGE2-Rezeptors (Homo sapiens, UniProt P43116); test: cAMP antagonism test (HTRF cAMP, in presence of PGE2); format: cell-based; settings: cAMP Antagonismustest, PGE2 as agonist; read-out: Antagonismus [IC50
T1 construct: host or cells: cells in a culture plate
Excerpt: Die Bindung von PGE2 an den EP2-Subtyp des humanen PGE2-Rezeptors induziert die Aktivierung membranständiger Adenylatzyklasen und führt zur Bildung von cAMP. In Gegenwart des Phosphodiesteraseinhibitors IBMX wird das durch diese Stimulation akkumulierte und mittels Zell-Lyse freigesetzte cAMP in einem kompetitiven Nachweisverfahren eingesetzt. In diesem Test konkurriert das cAMP im Lysat mit cAMP-XL665 um die Bindung eines Eu-Kryptat markierten Anti-cAMP Antikörpers.
Dabei entsteht in Abwesenheit von zellulärem cAMP ein maximales Signal, welches auf der Kopplung dieses Antikörpers an das cAMP-XL665 Molekül beruht. Dadurch entsteht nach Anregung bei 337 nm ein auf FRET (fluorescence resonance energy transfer) basierendes, lang anhaltendes Emissionssignal bei 665 nm (und bei […]). Beide Signale werden in einem geeigneten Messgerät zeitlich versetzt, d.h. nach Abklingen der Hintergrundsfluoreszenz gemessen. Jegliche Erhöhung des durch Prostglandin-E2-Gabe bedingten niedrigen FRET-Signals (gemessen als Well-Ratio-Veränderung = Emission665nm/Emission620nm * 10000) zeigt die Wirkung von Antagonisten.
Die in einer Testplatte und 30 % DMSO vorgelegten Substanzlösungen (0.75 µl) werden in 16 µl einer KRSB+IBMX-Stimulationslösung gelöst (1 X Krebs-Ringer Bicarbonate Buffer; Sigma-Aldrich # K-4002; inklusive 750 µM 3-Isobutyl-1-methylxanthine Sigma-Aldrich # 1-7018), anschließend werden 15 µl davon in eine medienfreie Zellkulturplatte überführt, die kurz zuvor mit KRSB gewaschen worden war.
Nach einer 30-minütigen Vorinkubation bei Raumtemperatur (RT) werden 5 µl einer 4xPGE2 Lösung (11 nM) zugegeben und in Gegenwart des Agonisten für weitere 60 min bei RT inkubiert (Volumen: ~ 20 µl), bevor die Reaktion anschlieβend durch Zugabe von 5 µl Lysispuffer gestoppt und für weitere 20 min bei RT inkubiert wird (Volumen: ~ 25 µl). Das Zell-Lysat wird anschließend in eine Messplatte überführt und entsprechend den Herstellerangaben (cyclic AMP kit Cisbio International # 62AMPPEC) gemessen.

Kumulus-Eizell Komplexe = test: cumulus expansion test in vitro; format: cell-based, Mäusen; settings: competing with PGE2
Excerpt: In immaturen weiblichen Mäusen (Stamm : CD1 (ICR) von Charles River) wird in einem Alter von 14 - 18 Tagen die Follikulogenese durch eine einmalige Gabe (intraperitoneal) von 10 I.E. PMSG (Pregnant Mare Serum Gonadotropine; Sigma G-4877, Lot 68H0909) induziert. 47 - 50 Stunden nach der Injektion werden die Ovarien entnommen und die Kumulus-Eizell Komplexe entnommen. Der Kumulus Komplex ist in diesem Stadium noch nicht expandiert. Die Kumulus-Eizell Komplexe werden nun für 20 - 24 Stunden mit Prostaglandin E2 (PGE2) (0,3 µM), Vehikel Kontrolle (Ethanol) oder Testsubstanzen inkubiert. Medium: alpha- MEM Medium mit 0,1 mM IBMX, Pyruvate (0,23 mM) Glutamine (2 mM), Pen/Strep 100 IU/ml Pen. und 100 µg/ml Strep.) und HSA (8 mg/ml)). Danach wird die Kumulus Expansion durch die Einteilung in vier Stadien (nach Vanderhyden et al. Dev Biol. 1990 Aug; 140(2):307-317) festgestellt. Tabelle 1: Beispiel für die biologische Wirksamkeit der erfindungsgemäßen Verbindungen (gemessen mittels cAMP Antagonismustest): […]

[2] = target: T1, EP2-Subtyp des humanen PGE2-Rezeptors; test: cellular cAMP agonism test; format: cell-based

T1 sequence (P43116 whole entry): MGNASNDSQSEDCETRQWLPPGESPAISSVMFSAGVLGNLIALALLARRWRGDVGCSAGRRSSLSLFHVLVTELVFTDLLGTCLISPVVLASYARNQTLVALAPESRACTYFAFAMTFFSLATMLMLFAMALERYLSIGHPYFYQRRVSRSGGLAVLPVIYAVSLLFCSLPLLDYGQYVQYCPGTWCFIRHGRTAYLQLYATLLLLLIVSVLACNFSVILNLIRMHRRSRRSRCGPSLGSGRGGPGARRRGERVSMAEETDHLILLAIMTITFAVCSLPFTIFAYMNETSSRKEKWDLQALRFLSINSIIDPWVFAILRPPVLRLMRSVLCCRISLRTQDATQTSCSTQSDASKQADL

Structure (SMILES) | IC50 [1] [nM] | further results
Cc1[nH]c2c(F)ccc(C)c2c1CCNC(=O)C=Cc1ccncc1 (mixture of isomers) [Beispiel 2, (E/Z)-N-[2-(7-Fluor-2,4-dimethyl-1H-indol-3-yl)-ethyl]-3-pyridin-4-yl-acrylamid] | 1500 | –
CC(C)Oc1ccc2c(=O)c3cc(C(=O)O)ccc3oc2c1 [AH 6809, reference compound] | – | Unterdrückung der Kumulus Expansion (Kumulus-Eizell Komplexe; 100 - 200 µM): ca. 30%
Cc1[nH]c2c(F)ccc(C)c2c1CCNC(=O)/C=C/c1ccc2c(c1)OCO2 [Beispiel 1, (E)-3-Benzo[1,3]dioxol-5-yl-N-[2-(7-fluor-2,4-dimethyl-1H-indol-3-yl)-ethyl]-acrylamid] | – | Unterdrückung der Kumulus Expansion (Kumulus-Eizell Komplexe; at a 10-fold lower concentration than AH 6809 (100 - 200 µM)): 61%
Cc1[nH]c2c(F)ccc(C)c2c1CCNC(=O)/C=C/c1ccc(OCCN(C)C)cc1 [Beispiel 18, (E)-3-[4-(2-Dimethylamino-ethoxy)-phenyl]-N-[2-(7-fluor-2,4-dimethyl-1H-indol-3-yl)-ethyl]-acrylamid] | 2200 | –
Cc1[nH]c2c(F)ccc(C)c2c1CCNC(=O)/C=C/c1cccc(S(N)(=O)=O)c1 [Beispiel 36, (E)-N-[2-(7-Fluor-2,4-dimethyl-1H-indol-3-yl)-ethyl]-3-(3-sulfamoyl-phenyl)-acrylamid] | 1000 | Wirkung im zellulären Agonismustest [2]: keine Inhibition
Cc1[nH]c2c(F)ccc(C)c2c1CCNC(=O)/C=C/c1cncc2ccccc12 [Beispiel 47, (E)-N-[2-(7-Fluor-2,4-dimethyl-1H-indol-3-yl)-ethyl]-3-isochinolin-4-yl-acrylamid] | 1500 | –
